# According to ChEMBL document CHEMBL5247586, “Discovery of fusidic acid derivatives as novel STING inhibitors for treatment of sepsis” (Eur J Med Chem, 2022):
# Calls of active or inactive are those of the source. No cut-off for these calls is given here.
# Tests used:
# Mus musculus = test: Antiinflammatory activity in BALB/c mouse model of LPS induced sepsis assessed as inhibition of IL-6 production at 1.25 to 5 mg/kg, IG administered once a day for 3 days followed by LPS stimulation for 12 hrs starting from 2 hrs post last dose by qRT-PCR analysis; type: functional, organism-based; settings: dose 1.25-5 mg/kg, time 86.0 hrs
# [1] = Tmax in Sprague-Dawley rat administered intragastrically; type: ADME; settings: in vivo, po, route ig
# RAW264.7 = test: Anti inflammatory activity in LPS-induced mouse RAW264.7 cells assessed as suppression of TNF-alpha levels at 0.5 to 2 uM preincubated with compound for 2 hrs followed by LPS stimulation for 6 hrs by ELISA method; type: functional, cell-based; settings: dose 0.5-2 µM, time 8.0 hrs
# [2] = biological target: T1, Stimulator of interferon genes protein (Mus musculus) (UniProt Q3TBT3); test: (§1) In vivo inhibition of STING in BALB/c mouse model of LPS induced sepsis assessed as inhibition of upregulation of phosphorylated TBK1 mRNA expression at 1.25 to 5 mg/kg, IG administered once a day for 3 days followed by LPS stimulation for 12 hrs starting from 2 hrs post last dose by Western blot analysis; type: functional, organism-based; settings: dose 1.25-5 mg/kg, time 86.0 hrs
# T1 sequence (whole entry): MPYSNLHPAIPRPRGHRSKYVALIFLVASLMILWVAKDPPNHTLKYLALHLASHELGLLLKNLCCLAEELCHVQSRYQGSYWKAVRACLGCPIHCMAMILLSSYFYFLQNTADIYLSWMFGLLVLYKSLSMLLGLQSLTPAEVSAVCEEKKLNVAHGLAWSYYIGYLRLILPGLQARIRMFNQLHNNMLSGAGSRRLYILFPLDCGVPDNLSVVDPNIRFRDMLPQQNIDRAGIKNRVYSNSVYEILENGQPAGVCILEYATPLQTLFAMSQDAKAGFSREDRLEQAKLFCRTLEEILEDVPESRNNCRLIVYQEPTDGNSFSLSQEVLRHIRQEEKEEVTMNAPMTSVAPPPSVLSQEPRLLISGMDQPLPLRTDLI
# [3] = biological target: T2, Inhibitor of nuclear factor kappa-B kinase subunit beta (Mus musculus) (UniProt O88351); test: Inhibition of IkappaB phosphorylation in LPS-induced mouse RAW264.7 cells preincubated with compound for 2 hrs followed by LPS stimulation and measured after 6 hrs by Western blot analysis; type: cell-based; settings: dose 0.5-2 µM, time 8.0 hrs
# T2 sequence (whole entry): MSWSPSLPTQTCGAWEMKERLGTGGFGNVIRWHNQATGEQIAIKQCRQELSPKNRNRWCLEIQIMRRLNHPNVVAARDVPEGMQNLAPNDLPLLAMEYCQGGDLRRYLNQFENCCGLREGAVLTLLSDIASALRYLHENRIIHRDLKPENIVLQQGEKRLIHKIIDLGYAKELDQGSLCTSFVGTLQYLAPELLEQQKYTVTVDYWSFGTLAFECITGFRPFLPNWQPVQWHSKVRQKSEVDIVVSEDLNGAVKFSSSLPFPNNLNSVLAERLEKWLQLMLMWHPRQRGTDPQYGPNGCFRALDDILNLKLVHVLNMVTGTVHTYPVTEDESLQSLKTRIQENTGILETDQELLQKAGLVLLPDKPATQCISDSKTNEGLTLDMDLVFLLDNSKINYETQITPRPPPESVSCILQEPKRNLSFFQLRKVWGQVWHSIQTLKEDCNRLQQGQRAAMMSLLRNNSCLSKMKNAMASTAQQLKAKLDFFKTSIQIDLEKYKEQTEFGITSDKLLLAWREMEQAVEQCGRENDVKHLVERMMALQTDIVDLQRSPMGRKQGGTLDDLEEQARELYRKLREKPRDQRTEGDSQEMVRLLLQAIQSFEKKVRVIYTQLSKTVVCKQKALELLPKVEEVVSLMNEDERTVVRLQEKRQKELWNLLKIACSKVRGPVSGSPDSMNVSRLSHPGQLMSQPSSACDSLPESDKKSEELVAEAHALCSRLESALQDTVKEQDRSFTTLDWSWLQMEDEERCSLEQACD
# [4] = biological target: T1, Stimulator of interferon genes protein (Mus musculus); test: as §1, with “p65 protein” for “TBK1 mRNA”; type: functional, organism-based; settings: dose 1.25-5 mg/kg, time 86.0 hrs
# [5] = biological target: T3, Serine/threonine-protein kinase TBK1 (Mus musculus) (UniProt Q9WUN2); test: Inhibition of TBK1 phosphorylation in LPS-induced mouse RAW264.7 cells preincubated with compound for 2 hrs followed by LPS stimulation and measured after 6 hrs by Western blot analysis; type: cell-based; settings: dose 0.5-2 µM, time 8.0 hrs
# T3 sequence (whole entry): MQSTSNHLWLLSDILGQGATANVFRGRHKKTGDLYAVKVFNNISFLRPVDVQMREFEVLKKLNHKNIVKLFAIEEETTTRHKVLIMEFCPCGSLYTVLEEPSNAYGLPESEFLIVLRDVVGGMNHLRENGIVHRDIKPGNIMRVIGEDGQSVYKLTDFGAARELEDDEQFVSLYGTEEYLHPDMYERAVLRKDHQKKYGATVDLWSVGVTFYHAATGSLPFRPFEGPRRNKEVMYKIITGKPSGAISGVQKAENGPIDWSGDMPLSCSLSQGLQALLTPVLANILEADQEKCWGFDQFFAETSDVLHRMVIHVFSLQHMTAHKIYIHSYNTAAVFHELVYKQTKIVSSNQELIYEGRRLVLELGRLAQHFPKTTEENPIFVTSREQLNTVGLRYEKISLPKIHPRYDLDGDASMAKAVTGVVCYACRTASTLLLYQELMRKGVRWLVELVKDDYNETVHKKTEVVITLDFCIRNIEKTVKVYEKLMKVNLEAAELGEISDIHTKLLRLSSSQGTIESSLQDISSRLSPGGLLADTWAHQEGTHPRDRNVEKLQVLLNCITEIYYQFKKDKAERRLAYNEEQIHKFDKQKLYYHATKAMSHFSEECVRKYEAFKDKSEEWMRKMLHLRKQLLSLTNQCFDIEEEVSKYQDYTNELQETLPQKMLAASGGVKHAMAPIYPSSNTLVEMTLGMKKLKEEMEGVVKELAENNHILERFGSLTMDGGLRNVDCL
# [6] = AUC(0 to t) in Sprague-Dawley rat administered intragastrically; type: ADME; set-up: route ig; settings: in vivo, po
# [7] = AUC(0 to infinity) in Sprague-Dawley rat administered intragastrically; type: ADME; set-up: route ig; settings: in vivo, po
# [8] = biological target: T4, Interferon regulatory factor 3 (Mus musculus) (UniProt P70671); test: Inhibition of IRF3 phosphorylation in LPS-induced mouse RAW264.7 cells preincubated with compound for 2 hrs followed by LPS stimulation and measured after 6 hrs by Western blot analysis; type: cell-based; settings: dose 0.5-2 µM, time 8.0 hrs
# T4 sequence (whole entry): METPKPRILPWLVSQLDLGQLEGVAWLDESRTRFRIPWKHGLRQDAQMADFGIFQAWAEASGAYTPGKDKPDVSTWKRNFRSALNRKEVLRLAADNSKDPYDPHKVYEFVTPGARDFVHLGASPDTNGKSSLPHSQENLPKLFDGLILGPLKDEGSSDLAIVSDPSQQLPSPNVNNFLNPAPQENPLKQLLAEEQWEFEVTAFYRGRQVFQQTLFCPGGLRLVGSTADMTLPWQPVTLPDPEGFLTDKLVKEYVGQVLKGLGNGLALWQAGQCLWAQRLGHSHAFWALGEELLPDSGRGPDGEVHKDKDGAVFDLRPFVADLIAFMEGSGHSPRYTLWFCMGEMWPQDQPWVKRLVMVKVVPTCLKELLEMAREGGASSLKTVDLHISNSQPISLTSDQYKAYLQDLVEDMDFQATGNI
structure (smiles),measurement,setting,value
C=CCONC(=O)CCSSCCC(=O)O[C@@H]1CC[C@@]2(C)[C@@H](CC[C@@]3(C)[C@H]2[C@H](O)C[C@H]2/C(=C(\CCC=C(C)C)C(=O)OCc4ccccc4)[C@@H](OC(C)=O)C[C@@]23C)[C@@H]1C,inhibition,Mus musculus,Active
same,Tmax,[1],1 h
same,Activity,RAW264.7,Active
same,inhibition,[2],Active
same,inhibition,[3],Dose-Dependent Effect
same,inhibition,[4],Active
same,inhibition,[5],Dose-Dependent Effect
same,AUC(0-t),[6],81.1 ng·h/mL
same,AUC(0-inf),[7],136 ng·h/mL
same,inhibition,[8],Dose-Dependent Effect
